Where no end group is shown, it is not given here.
Key:
[1] = system: Escherichia coli strain HB101; experiment: Antibacterial activity assay (microspectrophotometry); assay type: cell-based; details: E coli; for IC50 (antibacterial activity): Table 4, highest test concentration 500 μg/ml; for IC50 (activity on bacteria): Table 5
Sarcina lutea ATCC 9342 = experiment: as above; assay type: cell-based; details: S lutea; 24 hours of incubation at 28° C.
Fusarium culmorum spores [2] = assay type: cell-based; details: F culmorum spores; protein 2-4 fold below the IC50 value; light microscope
Excerpt: During the course of screening many different plant species it has become evident that the protein class of the invention is fairly common in plant seeds. […] This is particularly evident when using Fusarium culmorum. The nature of the inhibition may also be characterized by the fact that it is very sensitive to the concentration of cations used in the assay.
This is readily visualised when Fusarium culmorum spores are used in the assay and at concentrations of the proteins which are 2-4 fold below the IC50 value.

[3] = system: Bacillus megaterium ATCC 13632; experiment: Antibacterial activity assay (microspectrophotometry); assay type: cell-based; details: B megaterium; 24 hours of incubation at 28° C.
B cinerea = experiment: Effect of ions on antifungal activity (synthetic growth medium); assay type: cell-based, Botrytis cinerea; details: for increase of IC50 values by CaCl2 at 1 mM: reference medium + 1 mM CaCl2; for drop in specific activity at 5 mM CaCl2: reference medium + 5 mM CaCl2; for effect of KCl at 10 mM on the dose-response curves: reference medium + 10 mM KCl; for increase of IC50 values by KCl at 50 mM: reference medium + 50 mM KCl; for IC50 in reference medium: synthetic growth medium, 2.5 mM monovalent and 0.1 mM divalent cations
[4] = system: Erwinia carotovora strain 3912; experiment: Antibacterial activity assay (microspectrophotometry); assay type: cell-based; details: E carotovora; highest test concentration 500 μg/ml
[5] = Chitin-binding activity (chitin micro-column, SDS-PAGE of fractions); details: 50 μg on chitin micro-column; washed at pH 7, desorbed with 100 mM acetic acid (pH 2.8)
Phytophthora infestans = assay type: cell-based
[6] = system: Alternaria brassicola MUCL 20297; assay type: cell-based
[7] = system: Colletotrichum lindemuthianum MUCL 9577; assay type: cell-based
[8] = system: Verticillium dahliae MUCL 19210; assay type: cell-based
[9] = system: Cercospora beticola strain K897; assay type: cell-based
[10] = system: Botrytis cinerea MUCL 30158; assay type: cell-based
[11] = system: Ascochyta pisi MUCL 30164; assay type: cell-based
[12] = system: Cladosporium sphaerospermum strain KO791; experiment: Antifungal activity assay (growth inhibition, microspectrophotometry); assay type: cell-based; details: C sphaerospermum; medium B (medium A + 1 mM CaCl2, 50 mM KCl); 48 h
Fusarium culmorum spores [13] = assay type: physicochemical; details: for antifungal activity after heat treatment at up to 80° C.: 10 minutes, F culmorum assay; for antifungal activity after reduction of disulphide bonds: reduction by DTE / dithiothreitol
Protocol: Tests for antifungal activity were performed with 20 μl samples diluted five-fold with growth medium containing Fusarium culmorum spores, according to the assay method given in Example 1. Untreated control samples consisted of the test proteins at 500 μg/ml in 10 mM sodium phosphat buffer (pH 7). For digestions, different proteases were added at 100 μg/ml and incubated at 37° C. for 16 hours. Heat stability tests were performed by heating aliquots of the test proteins for 10 minutes at different temperatures up to 100° C. pH stability was tested by incubation of test proteins for 1 hour in either 20 mM glycine-HCl (pH 2) or glycine-NaOH (pH 11) and subsequent dialysis for 16 hours against 10 mM sodium phosphate buffer (pH 7) using benzoylated cellulose tubing. Reduction of dishulphide bridges was done by addition of DTE at 30 mM and Tris-HCl (pH 8.6) at 300 mM. The reagents were removed by reversed-phase chromatography. For digestions, different proteases were added at 200 μg/ml and incubated at 37° C. for 3 hours.

[14] = system: Alternaria longipes strain CBS 620.83; experiment: Antifungal activity assay (growth inhibition, microspectrophotometry); assay type: cell-based; details: A longipes; medium B (medium A + 1 mM CaCl2, 50 mM KCl); 48 h
plant pathogenic fungi = assay type: cell-based

Substance: Ac-AMP1: antimicrobial protein from Amaranthus caudatus seeds, 29 residues, dimer of 3 kDa subunits (SEQ ID NO:5) (VGECVRGRCPSGMCCSQFGYCGKGPKYCG; cysteine pairing not given here; also: dimer of subunits)
- IC50 (antibacterial activity) [1]: no inhibition
- IC50 (antibacterial activity) (Sarcina lutea ATCC 9342): 250 µg/mL
- morphological change of partially inhibited spores (Fusarium culmorum spores [2]): severe branching of the emerging hyphal tips
- IC50 (antibacterial activity) [3]: 40 µg/mL
- increase of IC50 values by CaCl2 at 1 mM (B cinerea): five to six-fold
- drop in specific activity at 5 mM CaCl2 (B cinerea): more than 50 fold
- effect of KCl at 10 mM on the dose-response curves (B cinerea): did not significantly affect
- increase of IC50 values by KCl at 50 mM (B cinerea): about three-fold
- IC50 in reference medium (B cinerea): 2.2 µg/mL
- IC50 (antibacterial activity) [4]: no inhibition
- affinity toward chitin [5]: exhibit affinity toward chitin
- IC50 (concentration required for 50% growth inhibition) (Phytophthora infestans): 12

Substance: Ac-AMP2: antimicrobial protein from Amaranthus caudatus seeds, 30 residues, Ac-AMP1 plus carboxyl-terminal arginine (SEQ ID NO:6) (VGECVRGRCPSGMCCSQFGYCGKGPKYCGR)
- IC50 (antibacterial activity) [1]: no inhibition
- IC50 (concentration required for 50% growth inhibition) [6]: 4
- IC50 (antibacterial activity) (Sarcina lutea ATCC 9342): 40 µg/mL
- IC50 (concentration required for 50% growth inhibition) [7]: 8
- IC50 (concentration required for 50% growth inhibition) [8]: 5
- IC50 (concentration required for 50% growth inhibition) [9]: 0.8
- IC50 (concentration required for 50% growth inhibition) [10]: 8
- increase of IC50 values by CaCl2 at 1 mM (B cinerea): five to six-fold
- drop in specific activity at 5 mM CaCl2 (B cinerea): more than 50 fold
- effect of KCl at 10 mM on the dose-response curves (B cinerea): did not significantly affect
- increase of IC50 values by KCl at 50 mM (B cinerea): about three-fold
- IC50 in reference medium (B cinerea): 1.6 µg/mL
- IC50 (antibacterial activity) [4]: no inhibition
- affinity toward chitin [5]: exhibit affinity toward chitin
- IC50 (concentration required for 50% growth inhibition) [11]: 8

Substance: Bm-AMP1: antimicrobial protein purified from seeds of Briza maxima; may be a mixture of peptides varying at positions 9 and 23 (SEQ ID NO:16)
- IC50 (activity on bacteria) [1]: > 800 µg/mL
- IC50 Medium B [12]: > 500 µg/mL
- antifungal activity after heat treatment at up to 80° C. (Fusarium culmorum spores [13]): resistant
- antifungal activity after reduction of disulphide bonds (Fusarium culmorum spores [13]): completely abolished
- IC50 Medium B [14]: > 500 µg/mL
- antifungal activity in high salt (medium B) (plant pathogenic fungi): essentially abolished
- number of fungi with IC50 value below 10 μg/ml (plant pathogenic fungi): six of the eight

Substance: Ca-AMP1: antimicrobial protein purified from seeds of Capsicum annuum (SEQ ID NO:15) (QEQCGNQAGGRACANRLCCSQYGYCGSTRAYCGVGCQSNCGR)
- IC50 (activity on bacteria) [1]: > 800 µg/mL
- morphological change of partially inhibited spores (Fusarium culmorum spores [2]): severe branching of the emerging hyphal tips
- antifungal activity after heat treatment at up to 80° C. (Fusarium culmorum spores [13]): resistant
- antifungal activity after treatment with chymotrypsin (Fusarium culmorum spores [13]; chymotrypsin): no affect on activity
- reduction of antifungal activity after treatment with pronase E (Fusarium culmorum spores [13]; pronase E): at least 10 fold
- reduction of antifungal activity after treatment with proteinase K (Fusarium culmorum spores [13]; proteinase K): at least 10 fold
- antifungal activity after reduction of disulphide bonds (Fusarium culmorum spores [13]): completely abolished
- reduction of antifungal activity after treatment with trypsin (Fusarium culmorum spores [13]; trypsin): 2 fold
- antifungal activity in high salt (medium B) (plant pathogenic fungi): essentially abolished
- number of fungi with IC50 value below 50 μg/ml (plant pathogenic fungi): 12 of the 18
- affinity toward chitin [5]: exhibits affinity to chitin
